Where “and” joins values, the source holds several entries; their conditions need not be identical. Equal values may be shown once. Entries after “also recorded” stand apart in the source; their conditions may differ. Read-outs that look alike come from different tables or passages of the source.
Experiments:
[1] = molecular target: T1, FabH (Escherichia coli, UniProt P0A6R0); assay: continuous UV-Vis assay for the production of acetoacetyl-CoA; type: biochemical; details: for effect on FabH activity with acetyl-CoA and malonyl-CoA as substrates: UV-Vis assays
T1 sequence (P0A6R0 whole entry): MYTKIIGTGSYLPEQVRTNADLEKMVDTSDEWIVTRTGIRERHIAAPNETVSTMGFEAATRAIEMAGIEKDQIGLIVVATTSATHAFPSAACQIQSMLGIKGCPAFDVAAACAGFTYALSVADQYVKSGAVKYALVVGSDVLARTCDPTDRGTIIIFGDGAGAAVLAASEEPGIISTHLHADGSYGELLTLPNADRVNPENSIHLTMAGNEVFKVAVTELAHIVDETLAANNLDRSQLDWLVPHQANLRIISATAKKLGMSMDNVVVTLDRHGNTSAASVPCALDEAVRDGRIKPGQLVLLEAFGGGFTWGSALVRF

[2] = system: FabH C112Q; type: biochemical, Escherichia coli; details: for Initial rate of hydrolysis to CoA or oxa(dethia)CoA / Initial rate, malonyl-CoA → acetyl-CoA/acetoacetyl-CoA: FabH C112Q, 10 μM enzyme; for stability with the FabH C112Q mutant: over 24 hours, 10 μM FabH C112Q
[3] = non-enzymatic stability/hydrolysis in buffer followed by HPLC; type: physicochemical; details: for Non-enzymatic hydrolysis rate: pH 6 and 7
[4] = system: E. coli FabH; details: for Initial rate of hydrolysis to CoA or oxa(dethia)CoA / Initial rate, malonyl-CoA → acetyl-CoA/acetoacetyl-CoA: FabH wt, 10 μM FabH; for activating potential for FabH decarboxylation of malonyl-CoA to acetoacetyl-CoA: FabH incubated with 125 μM analog then 250 μM malonyl-CoA, HPLC progress curves; for time to reaction completion: FabH
[5] = molecular target: T1, FabH; details: cited from earlier work
[6] = system: citrate synthase; details: cited from earlier work
[7] = system: phosphotransacetylase; details: cited from earlier work
[8] = molecular target: fluoroacetyl-CoA hydrolase; details: cited from earlier work
[9] = competition with malonyl-CoA binding assumed, pH 8.0, 50 mM Mg2+
[10] = pH 6, ~250 μM substrate or analog
[11] = pH 7, ~250 μM substrate or analog
[12] = pH 8, ~250 μM substrate or analog
[13] = varying malonyl-CoA, acetyl-CoA at 125 μM, substrate inhibition model

**Q.** Which Ki [1, 9] does the source give for `CC(C)(COP(=O)(O)OP(=O)(O)OC[C@H]1O[C@@H](n2cnc3c(N)ncnc32)[C@H](O)[C@@H]1OP(=O)(O)O)[C@@H](O)C(=O)NCCC(=O)NCCN` [compound 6, aza(dethia)CoA] here?
**A.** The Ki was 900 ± 400 µM.

**Q.** For `CC(=O)SCCNC(=O)CCNC(=O)[C@H](O)C(C)(C)COP(=O)(O)OP(=O)(O)OC[C@H]1O[C@@H](n2cnc3c(N)ncnc32)[C@H](O)[C@@H]1OP(=O)(O)O` [acetyl-CoA], which “Initial rate of hydrolysis to CoA or oxa(dethia)CoA” value (from here on “Initial rate of hydrolysis”) [2, 10] is on record?
**A.** Its value is 0.0005 ± 0.0001 min⁻¹.

**Q.** And the “Initial rate of hydrolysis” value [2, 11]?
**A.** Its value is 0.0006 ± 0.0001 min⁻¹.

**Q.** And the “Initial rate of hydrolysis” value [2, 12]?
**A.** The value was 0.0030 ± 0.0001 min⁻¹.

**Q.** What about the Km ([1]; read-out: apparent Km, varying acetyl-CoA with 125 μM malonyl-CoA) of the same molecule?
**A.** Its Km is 0.3 ± 0.1 µM.

**Q.** What about the Non-enzymatic hydrolysis rate [3] of the same molecule?
**A.** Its Non-enzymatic hydrolysis rate is ~ 0.0004 min^−1.

**Q.** What about the “Non-enzymatic hydrolysis rate at pH 8 relative to pH 6 and 7” value [3] of the same molecule?
**A.** Its value is ~ 10 times higher.

**Q.** What about the “Initial rate of hydrolysis” value [4, 10] of the same molecule?
**A.** Its value is 0.0004 ± 0.0001 min⁻¹.

**Q.** And the “Initial rate of hydrolysis” value [4, 11]?
**A.** The value was 0.0010 ± 0.0001 min⁻¹.

**Q.** What about the “Initial rate of hydrolysis” value [4, 12] of the same molecule?
**A.** Its value is 0.0038 ± 0.0002 min⁻¹.

**Q.** And the transthiolation rate [5]?
**A.** The transthiolation rate was 0.05 s⁻¹.

**Q.** And the Km ([5]; read-out: apparent KM, pH 7.0, malonyl-S-ACP as acceptor ref 32, 35)?
**A.** The Km was 40 µM.

**Q.** What about the Km [6] of the same molecule?
**A.** The Km was 8.5 µM.

**Q.** What about the Km [7] of the same molecule?
**A.** The Km was 210 µM.

**Q.** For `CC(C)(COP(=O)(O)OP(=O)(O)OC[C@H]1O[C@@H](n2cnc3c(N)ncnc32)[C@H](O)[C@@H]1OP(=O)(O)O)[C@@H](O)C(=O)NCCC(=O)NCCS` [CoA], which Ki [1, 9] is on record?
**A.** The Ki was 150 ± 70 µM.

**Q.** Which “stability with the FabH C112Q mutant” value [2] does the source give for `CC(C)(COP(=O)(O)OP(=O)(O)OC[C@H]1O[C@@H](n2cnc3c(N)ncnc32)[C@H](O)[C@@H]1OP(=O)(O)O)[C@@H](O)C(=O)NCCC(=O)NCCNC(=O)CC(=O)O` [compound 4, malonyl-aza(dethia)CoA] here?
**A.** The value was “completely stable”.

**Q.** What about the Ki [1, 9] of the same molecule?
**A.** Its Ki is 700 ± 300 µM.

**Q.** With `CC(C)(COP(=O)(O)OP(=O)(O)OC[C@H]1O[C@@H](n2cnc3c(N)ncnc32)[C@H](O)[C@@H]1OP(=O)(O)O)[C@@H](O)C(=O)NCCC(=O)NCCOC(=O)CF` [fluoroacetyl-oxa(dethia)CoA] as the molecule, how does the Kd [8] read?
**A.** The Kd was 90 µM.

**Q.** Which Kd [8] does the source give for `CC(C)(COP(=O)(O)OP(=O)(O)OCC1OC(n2cnc3c(N)ncnc32)C(O)C1OP(=O)(O)O)C(O)C(=O)NCCC(=O)NCCNC(=O)CF` (stereo not drawn) [fluoroacetyl-aza(dethia)CoA] here?
**A.** The Kd was 1700 µM.

**Q.** Which Km [8] does the source give for `CC(C)(COP(=O)(O)OP(=O)(O)OC[C@H]1O[C@@H](n2cnc3c(N)ncnc32)[C@H](O)[C@@H]1OP(=O)(O)O)[C@@H](O)C(=O)NCCC(=O)NCCSC(=O)CF` [fluoroacetyl-CoA] here?
**A.** Its Km is 8 µM.

**Q.** Which results are given for `CC(=O)OCCNC(=O)CCNC(=O)[C@H](O)C(C)(C)COP(=O)(O)OP(=O)(O)OC[C@H]1O[C@@H](n2cnc3c(N)ncnc32)[C@H](O)[C@@H]1OP(=O)(O)O` [compound 1, acetyl-oxa(dethia)CoA]?
**A.** Initial rate of hydrolysis to CoA or oxa(dethia)CoA [2, 12]: ~ 0.001 min^−1; effect on FabH activity with acetyl-CoA and malonyl-CoA as substrates [1]: slightly activating; also recorded: did not find inhibition; also recorded: a couple percent activation; Ki [1, 9]: weak activation; activating potential for FabH decarboxylation of malonyl-CoA to acetoacetyl-CoA [4]: not strong activators; Initial rate of hydrolysis to CoA or oxa(dethia)CoA [4, 12]: ~ 0.003 min^−1

**Q.** Which Ki [1, 9] does the source give for `CC(C)(COP(=O)(O)OP(=O)(O)OC[C@H]1O[C@@H](n2cnc3c(N)ncnc32)[C@H](O)[C@@H]1OP(=O)(O)O)[C@@H](O)C(=O)NCCC(=O)NCCO` [compound 5, oxa(dethia)CoA] here?
**A.** The Ki was 400 ± 200 µM.

**Q.** What does the source list for `CC(C)(COP(=O)(O)OP(=O)(O)OC[C@H]1O[C@@H](n2cnc3c(N)ncnc32)[C@H](O)[C@@H]1OP(=O)(O)O)[C@@H](O)C(=O)NCCC(=O)NCCOC(=O)CC(=O)O` [compound 3, malonyl-oxa(dethia)CoA]?
**A.** Decarboxylation by C112Q mutant [2]: not detected; Initial rate of hydrolysis to CoA or oxa(dethia)CoA [2, 12]: ~ 0.001 min^−1; stability with the FabH C112Q mutant [2]: relatively unreactive; Ki [1, 9]: 800 ± 400 µM; Decarboxylation by FabH [4]: not detected; Initial rate of hydrolysis to CoA or oxa(dethia)CoA [4, 12]: ~ 0.001 min^−1

**Q.** Which results are given for `CC(C)(COP(=O)(O)OP(=O)(O)OC[C@H]1O[C@@H](n2cnc3c(N)ncnc32)[C@H](O)[C@@H]1OP(=O)(O)O)[C@@H](O)C(=O)NCCC(=O)NCCSC(=O)CC(=O)O` [malonyl-CoA]?
**A.** FabH C112Q decarboxylation relative to activated wild-type in the absence of acetyl-CoA [2]: 5 times faster; Initial rate of hydrolysis to CoA or oxa(dethia)CoA [2, 10]: 0.0005 ± 0.0001 min⁻¹; Initial rate, malonyl-CoA → acetyl-CoA/acetoacetyl-CoA ([2]; pH 6, ~250 μM substrate): 0.0060 ± 0.0006 min⁻¹; Initial rate of hydrolysis to CoA or oxa(dethia)CoA [2, 11]: 0.0007 ± 0.0001 min⁻¹; Initial rate, malonyl-CoA → acetyl-CoA/acetoacetyl-CoA ([2]; pH 7, ~250 μM substrate): 0.18 ± 0.01 min⁻¹; Initial rate of hydrolysis to CoA or oxa(dethia)CoA [2, 12]: 0.0032 ± 0.0005 min⁻¹; Initial rate, malonyl-CoA → acetyl-CoA/acetoacetyl-CoA ([2]; pH 8, ~250 μM substrate): 0.20 ± 0.02 min⁻¹; Ki ([1]; read-out: Ki (substrate inhibition), varying malonyl-CoA, acetyl-CoA at 125 μM, substrate inhibition model): 1900 ± 600 µM; Km [1, 13]: 2500 µM and ~2500 µM; kcat [1, 13]: 0.0983 ± 0.0233 s⁻¹; Non-enzymatic hydrolysis rate [3]: ~ 0.0004 min^−1; Non-enzymatic hydrolysis rate at pH 8 relative to pH 6 and 7 [3]: ~ 10 times higher; Initial rate, malonyl-CoA → acetyl-CoA/acetoacetyl-CoA ([4]; pH 7, ~250 μM substrate): biphasic; Initial rate, malonyl-CoA → acetyl-CoA/acetoacetyl-CoA ([4]; pH 8, ~250 μM substrate, 25 μM acetyl-CoA to alleviate lag phase, value is for acetoacetyl-CoA appearance): 0.043 ± 0.001^‡ min^−1; time to reaction completion ([4]; malonyl-CoA with priming acetyl-CoA (10% of malonyl-CoA)): about 250 min; time to reaction completion ([4]; malonyl-CoA without priming acetyl-CoA (Figure 2J)): 620 min

**Q.** Which “effect on FabH activity with acetyl-CoA and malonyl-CoA as substrates” value [1] does the source give for `CC(=O)NCCNC(=O)CCNC(=O)[C@H](O)C(C)(C)COP(=O)(O)OP(=O)(O)OC[C@H]1O[C@@H](n2cnc3c(N)ncnc32)[C@H](O)[C@@H]1OP(=O)(O)O` [compound 2, acetyl-aza(dethia)CoA] here?
**A.** The value was “moderate inhibitor”.

**Q.** And the Ki ([1]; competition with malonyl-CoA binding assumed)?
**A.** Its Ki is 800 µM.

**Q.** And the Ki [1, 9]?
**A.** The Ki was 800 ± 100 µM.

**Q.** And the “activating potential for FabH decarboxylation of malonyl-CoA to acetoacetyl-CoA” value [4]?
**A.** Its value is “not strong activators”.

**Q.** And the Ki [6]?
**A.** The Ki was 1.6 µM.

**Q.** And the Ki [7]?
**A.** The Ki was 130 µM.
